Patent publication US11166924B2, “N-methyl-d-aspartate receptor allosteric modulators and methods for their use” (Qingdao Primedicine Pharmaceutical Company, Ltd., priority 2016, dated 2021)

Key:
AMPAR = assay: AMPA-induced currents in cultured hippocampal neurons; assay type: cell-based
Method: Whole cell patch-clamp recordings were performed under voltage-clamp mode using an Axopatch 200B or 1D patch-clamp amplifier (Molecular Devices). Whole-cell currents were recorded at a holding potential of −60 mV unless indicated elsewhere, and signals were filtered at 2 kHz, digitized at 10 kHz (Digidata 1322A). Recording pipettes (3-5 MΩ) were filled with the intracellular solution that contained (mM): CsCl 140, HEPES 10, Mg-ATP 4, QX-314 5, pH 7.20; osmolarity, 290-295 mOsm. BAPTA (10 mM) was added in the intracellular solution (otherwise specified). The coverslips were continuously superfused with the extracellular solution containing (mM): NaCl 140, KCl 5.4, HEPES 10, CaCl2 1.3, glucose 20, pH 7.4; osmolarity, 305-315 mOsm. NMDA, GABA or AMPA induced currents were either applied by NMDA, GABA, AMPA either through perfusion fast-step (Warner Instruments). […]
Next, the inventor evaluated the selectivity profile for Npam02 on two other key ionotropic receptors of the central nervous system (CNS): α-amino-3-hydroxy-5-methyl-4-isoxazolepropionic acid receptor AMPAR, which are known to be a non-NMDA type ionotropic transmembrane receptor for glutamate that mediates fast synaptic transmission in the central nervous system (CNS) and GABA receptors which are the principal inhibitory ligand-gated ion channel receptor. […]

[1] = tested on: CREB phosphorylation (pCREB) on Serine 133; assay: pCREB levels in hippocampal slices; parameters: species or system rat; details: 10 μM; 30 min exposure; FIG. 21
Method: Male Sprague Dawley rats 4-8 weeks old (125-200 gm) were decapitated, and their brains were dissected rapidly and placed into ice-cold chopping saline [containing (in mM): 110 sucrose, 60 NaCl, 3 KCl, 1.25 NaH2PO4, 28 NaHCO3, 5 D-glucose, 0.5 CaCl2, 7 MgCl2, and 0.6 ascorbate, saturated with 95% O2/5% CO2]. Then 400 μm transverse slices were prepared with a Vibratome Series 1000 (Pelco, Ted Pella, Redding, Calif.). Slices were transferred immediately into a 1:1 mix of chopping saline and normal ACSF [containing (in mM): 125 NaCl, 2.5 KCl, 1.25 NaH2PO4, 25 NaHCO3, 10 D-glucose, 2 CaCl2, and 1 MgCl2, saturated with 95% O2/5% CO2] and maintained at room temperature for at least 90 min. Then the slices were transferred to ACSF at 32° C. in a submersion chamber for 45-60 min before pharmacological stimulation.
Brain tissues or cultured cells were lysed on ice in the lysis buffer and then the solution was centrifuged at 14,000 rpm for 10 min at 4° C. Next, the supernatant was collected and protein concentrations were determined using a BCA protein assay kit (Thermo Scientific, 23227). […] The band density of each protein was quantified by the Bio-Rad Quantity One software and the relative optical density was analyzed relative to loading total-CREB on the same membrane. […]

Q: `COc1cccc(/C=N/NC(=O)c2ccccc2C)c1O` [Npam02, (E)-N′-(2-hydroxy-3-methoxybenzylidene)-2-methylbenzohydrazide] was tested. Which “Effect on AMPAR mediated currents” value (AMPAR) did it give?
A: Its value is “no observable effects”.

Q: For `CCOc1cc(Cl)c(Cl)c(/C=N/NC(=O)c2ccccc2Br)c1O` [Npam43, (E)-2-bromo-N′-(2,3-dichloro-5-ethoxy-6-hydroxybenzylidene)benzohydrazide], which “pCREB levels in hippocampal slices” value [1] is on record?
A: The value was “significantly enhanced pCREB levels”.
